Consider 38 compounds from patent US9096524B2, “Anthelmintic agents and their use” (Intervet International B.V., priority 2009, dated 2015).

Each structure is given as a SMILES string.

One experiment deals with A. galli (intestinal roundworm of chicken) larval stage 3; O. dentatum (nodular worm of swine) larval stages 3 and 4. The experiment can be described thus: Activity against Ascaridia galli and Oesophagostomum dentatum larvae in vitro (minimum effective concentration). To be noted: in vitro; one or more of A. galli L3, O. dentatum L3, L4; threshold 1 μM; read-out: MEC (minimum effective concentration) against one or more of the tested nematodes. The experiment is classed as cell-based.
`O=C(CCCN1CC2CN(c3ccc(C(F)(F)F)cc3)CC2C1)N1CCC(Nc2ccc([N+](=O)[O-])c(C(F)(F)F)c2)CC1` (stereo not drawn) [Example 715]: the minimal effective concentration is < 1 µM.
Same read-out and setting: the same measure for `O=C(CCCN1CC2CN(c3ccc(Cl)cc3)CC2C1)N1CCC(Nc2ccc([N+](=O)[O-])c(C(F)(F)F)c2)CC1` (stereo not drawn) [Example 716]: < 1 µM.
Take `O=C(CCN1CCN(c2nnc(C(F)(F)F)s2)CC1)N1CC[C@H](Nc2ccc([N+](=O)[O-])c(C(F)(F)F)c2)C1` [Example 720]: the minimal effective concentration is < 1 µM.
On the same count and under the same terms, as for `O=C(CCCN1CCN(c2ccc(C(F)(F)F)cc2)CC1)N1CC[C@H](Nc2ccc([N+](=O)[O-])c(C(F)(F)F)c2)C1` [Example 730], the figure is < 1 µM; as for `O=C(CCCN1CCN(c2ccc(Cl)cc2)CC1)N1CC[C@H](Nc2ccc([N+](=O)[O-])c(C(F)(F)F)c2)C1` [Example 731], < 1 µM; as for `O=C(CCCC1CCN(c2ccc(C(F)(F)F)cc2)CC1)N1CC[C@H](Nc2ccc([N+](=O)[O-])c(C(F)(F)F)c2)C1` [Example 733], < 1 µM.
Still for that read-out and setting: the same measure for `COc1ccc(N2CCN(CCCC(=O)N3CC[C@H](Nc4ccc([N+](=O)[O-])c(C(F)(F)F)c4)C3)CC2)cn1` [Example 746]: < 1 µM; for `O=C(CCCN1CCN(c2nnc(C(F)(F)F)s2)CC1)N1CC[C@H](Nc2ccc([N+](=O)[O-])c(C(F)(F)F)c2)C1` [Example 749]: < 1 µM.
On the same count and under the same terms, as for `O=C(CCCC1CCN(c2ccc(Cl)cc2)CC1)N1CC[C@@H](Nc2ccc([N+](=O)[O-])c(C(F)(F)F)c2)C1` [Example 774], the figure is < 1 µM; as for `O=C(CCC1CCN(c2ccc(C(F)(F)F)cc2)CC1)N1CC[C@@H](Nc2ccc([N+](=O)[O-])c(C(F)(F)F)c2)C1` [Example 775], < 1 µM; as for `O=C(CCCN1CCCN(c2ccc(Cl)cc2)CC1)N1CC[C@@H](Nc2ccc([N+](=O)[O-])c(C(F)(F)F)c2)C1` [Example 777], < 1 µM.
In the case of `CC(C)(C)c1ccc(N2CCCN(CCCC(=O)N3CC[C@@H](Nc4ccc([N+](=O)[O-])c(C(F)(F)F)c4)C3)CC2)cc1` [Example 778], the minimal effective concentration was < 1 µM.
Still for that read-out and setting: as for `O=C(CCCN1CCN(c2nnc(C(F)(F)F)s2)CC1)N1CC[C@@H](Nc2ccc([N+](=O)[O-])c(C(F)(F)F)c2)C1` [Example 784], the figure is < 1 µM.
In the case of `CC(CN1CCN(c2ccc(C(C)(C)C)cc2)CC1)C(=O)N1CC[C@@H](Nc2ccc([N+](=O)[O-])c(C(F)(F)F)c2)C1` (stereo partly drawn) [Example 787], the minimal effective concentration is < 1 µM.
The same measure, in the same setting: the same measure for `O=C(CCN1CCN(c2ccc(Cl)cc2)CC1)N1CC[C@@H](Nc2ccc([N+](=O)[O-])c(C(F)(F)F)c2)C1` [Example 789]: < 1 µM; for `CC(C)(C)c1ccc(N2CCN(CCC(=O)N3CC[C@@H](Nc4ccc([N+](=O)[O-])c(C(F)(F)F)c4)C3)CC2)cc1` [Example 790]: < 1 µM; for `O=C(CCCN1CCN(c2ccc(Cl)cc2)CC1)N1CC[C@@H](Nc2ccc([N+](=O)[O-])c(C(F)(F)F)c2)C1` [Example 792]: < 1 µM.
The same measure, in the same setting: as for `O=C(CCN1CCN(c2ccc(Cl)cn2)CC1)N1CC[C@@H](Nc2ccc([N+](=O)[O-])c(C(F)(F)F)c2)C1` [Example 795], the figure is < 1 µM.
The same measure, in the same setting: as for `O=C(CCN1CCCN(c2ccc(Cl)cc2)CC1)N1CC[C@@H](Nc2ccc([N+](=O)[O-])c(C(F)(F)F)c2)C1` [Example 799], the figure is < 1 µM; as for `N#Cc1ccc(N2CCCN(C(=O)CCCN3CCN(c4ccc(C(F)(F)F)cc4)CC3)CC2)cc1C(F)(F)F` [Example 1008], < 1 µM; as for `CC(C)(C)c1ccc(N2CCN(CCCC(=O)N3CCCN(c4ccc(C#N)c(C(F)(F)F)c4)CC3)CC2)cc1` [Example 1010], < 1 µM.
On to `O=C(CCCN1CCN(c2ccc(C(F)(F)F)cc2)CC1)N1CCCN(c2ccc(C(F)(F)F)cn2)CC1` [Example 1014], for which the minimal effective concentration was < 1 µM.
Still for that read-out and setting: as for `O=C(CCN1CCN(c2ccc(C(F)(F)F)cc2)CC1)N1CCCN(c2ccc(SC(F)(F)F)cc2)CC1` [Example 1017], the figure is < 1 µM.

Staying with this experiment, now noted: in vitro; one or more of A. galli L3, O. dentatum L3, L4; threshold 7 μM; read-out: MEC (minimum effective concentration) against one or more of the tested nematodes.
On to `O=C(CCCC1CCN(c2ccc(C(F)(F)F)cc2)CC1)N1CC[C@H](Nc2ccc([N+](=O)[O-])c(C(F)(F)F)c2)C1` [Example 733], for which the minimal effective concentration was < 7 µM.
In the case of `O=C(CCCC1CCN(c2ccc(Cl)cc2)CC1)N1CC[C@H](Nc2ccc([N+](=O)[O-])c(C(F)(F)F)c2)C1` [Example 734], the minimal effective concentration is < 7 µM.
The same measure, in the same setting: as for `O=C(CCCN1CC2CN(c3ccc(C(F)(F)F)cc3)CC2C1)N1CC[C@H](Nc2ccc([N+](=O)[O-])c(C(F)(F)F)c2)C1` (stereo partly drawn) [Example 743], the figure is < 7 µM; as for `O=C(CCN1CCN(c2ccc(C(F)(F)F)cc2)CC1)N1CCCN(c2ccc([N+](=O)[O-])c(C(F)(F)F)c2)CC1` [Example 997], < 7 µM.
On the same count and under the same terms, the same measure for `CC(C)(C)c1ccc(N2CCN(CCC(=O)N3CCCN(c4ccc([N+](=O)[O-])c(C(F)(F)F)c4)CC3)CC2)cc1` [Example 998]: < 7 µM; for `O=C(CCCN1CCN(c2ccc(C(F)(F)F)cc2)CC1)N1CCCN(c2ccc([N+](=O)[O-])c(C(F)(F)F)c2)CC1` [Example 1001]: < 7 µM; for `CC(C)(C)c1ccc(N2CCN(CCCC(=O)N3CCCN(c4ccc([N+](=O)[O-])c(C(F)(F)F)c4)CC3)CC2)cc1` [Example 1003]: < 7 µM.

Staying with this experiment, now noted: in vitro; two or more of A. galli L3, O. dentatum L3, L4; threshold 1 μM; read-out: MEC (minimum effective concentration) against two or more of the tested nematodes.
Take `FC(F)(F)Oc1ccc(NC2CCN(C(=S)CCCN3CCN(c4ccc(C(F)(F)F)cc4)CC3)CC2)cc1` [Example 701]: the minimal effective concentration is < 1 µM.
As to `O=C(CCCN1CC2CN(c3ccc(C(F)(F)F)cc3)CC2C1)N1CCC(Nc2ccc([N+](=O)[O-])c(C(F)(F)F)c2)CC1` (stereo not drawn) [Example 715], the minimal effective concentration is < 1 µM.
Take `O=C(CCCN1CC2CN(c3ccc(Cl)cc3)CC2C1)N1CCC(Nc2ccc([N+](=O)[O-])c(C(F)(F)F)c2)CC1` (stereo not drawn) [Example 716]: the minimal effective concentration is < 1 µM.
Still for that read-out and setting: the same measure for `O=C(CCN1CCCN(c2ccc(C(F)(F)F)cc2)CC1)N1CC[C@H](Nc2ccc([N+](=O)[O-])c(C(F)(F)F)c2)C1` [Example 725]: < 1 µM; for `O=C(CCCN1CCN(c2ccc(C(F)(F)F)cc2)CC1)N1CC[C@H](Nc2ccc([N+](=O)[O-])c(C(F)(F)F)c2)C1` [Example 730]: < 1 µM.
With `N#Cc1ccc(NC2CCN(C(=O)CCCN3CCC(Nc4ccc(Cl)cc4)CC3)CC2)cc1C(F)(F)F` [Example 759], the minimal effective concentration was < 1 µM.
The same measure, in the same setting: the same measure for `O=C(CCCC1CCN(c2ccc(Cl)cc2)CC1)N1CC[C@@H](Nc2ccc([N+](=O)[O-])c(C(F)(F)F)c2)C1` [Example 774]: < 1 µM; for `CC(C)(C)c1ccc(N2CCCN(CCCC(=O)N3CC[C@@H](Nc4ccc([N+](=O)[O-])c(C(F)(F)F)c4)C3)CC2)cc1` [Example 778]: < 1 µM.
The same measure, in the same setting: the same measure for `O=C(CCN1CCN(c2ccc(Cl)cc2)CC1)N1CC[C@@H](Nc2ccc([N+](=O)[O-])c(C(F)(F)F)c2)C1` [Example 789]: < 1 µM.

Still in this experiment, the particulars now being: read-out: MEC (minimum effective concentration) against two or more of the tested nematodes, in vitro; two or more of A. galli L3, O. dentatum L3, L4; threshold 1 μM.
On to `CC(CN1CCN(c2ccc(Cl)cc2)CC1)C(=O)N1CC[C@@H](Nc2ccc([N+](=O)[O-])c(C(F)(F)F)c2)C1` (stereo partly drawn) [Example 752], for which the minimal effective concentration is < 1 µM.
The same measure, in the same setting: the same measure for `N#Cc1ccc(NC2CCN(C(=O)CCCC3CCN(c4ccc(Cl)cc4)CC3)CC2)cc1C(F)(F)F` [Example 754]: < 1 µM.
The same measure, in the same setting: the same measure for `N#Cc1ccc(NC2CCN(C(=O)CCCN3CCCN(c4ccc(Cl)cc4)CC3)CC2)cc1C(F)(F)F` [Example 757]: < 1 µM.
On the same count and under the same terms, as for `COc1ccc(N2CCN(CCCC(=O)N3CCC(Nc4ccc(C#N)c(C(F)(F)F)c4)CC3)CC2)cn1` [Example 760], the figure is < 1 µM; as for `N#Cc1ccc(NC2CCN(C(=O)CCN3CCN(c4ccc(Cl)cn4)CC3)CC2)cc1C(F)(F)F` [Example 764], < 1 µM; as for `N#Cc1ccc(NC2CCN(C(=O)CCN3CCCN(c4ccc(Cl)cc4)CC3)CC2)cc1C(F)(F)F` [Example 770], < 1 µM.
